Our source for the IC50 values is patent US10214531B2 (Institute for Drug Discovery, LLC, priority 2013, dated 2019).

Where a name gives a salt, the structure may show the parent alone.

Chain of recombinant human AMCase (Q9BZP6 22-476): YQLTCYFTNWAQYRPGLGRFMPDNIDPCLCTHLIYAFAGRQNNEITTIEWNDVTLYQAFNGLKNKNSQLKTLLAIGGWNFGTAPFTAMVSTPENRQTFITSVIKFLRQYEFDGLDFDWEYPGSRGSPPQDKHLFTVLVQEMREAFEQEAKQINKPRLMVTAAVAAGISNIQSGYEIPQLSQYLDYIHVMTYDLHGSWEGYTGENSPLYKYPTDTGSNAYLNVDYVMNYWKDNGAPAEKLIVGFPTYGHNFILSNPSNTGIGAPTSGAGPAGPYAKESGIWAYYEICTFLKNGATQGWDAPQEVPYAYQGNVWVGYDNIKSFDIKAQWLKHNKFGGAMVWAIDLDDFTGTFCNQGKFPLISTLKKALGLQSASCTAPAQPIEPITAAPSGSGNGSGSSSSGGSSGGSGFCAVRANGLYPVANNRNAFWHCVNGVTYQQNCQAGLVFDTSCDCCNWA

The assay concerns the target recombinant human AMCase (Homo sapiens, UniProt Q9BZP6). Kind of assay: Human AMCase Activity Assay. Format: biochemical. The following applies: recombinant hAMCase, 4-methylumbelliferyl chitobioside substrate, citrate buffer pH 5.2, 37° C., 60 minutes; read-out: Activity (IC50 value key). A digest of the protocol:
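Recombinant human enzyme with fluorogenic 4-methylumbelliferyl β-D-N,N′-diacetylchitobioside substrate in citrate buffer, pH 5.2, 60 min at 37 °C in the dark with shaking. Read-out is 4MU fluorescence at 460 nm.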
As a reminder, the IC50 is the concentration that gives 50% inhibition. `Nc1n[nH]c(N2CCC(N(CCc3ccc(Cl)cc3)Cc3cnc4ccccc4n3)CC2)n1` [Example 116, 1-(3-amino-1H-1,2,4-triazol-5-yl)-N-(4-chlorophenethyl)-N-(quinoxalin-2-ylmethyl) piperidin-4-amine dihydrochloride]: the IC50 lay in the range of 100 to 1000 nM. Under `C[C@H](c1ccccc1)N(CCc1ccc(Cl)cc1)C1CCN(c2nc(N)n[nH]2)CC1` [Example 118, (R)-1-(3-amino-1H-1,2,4-triazol-5-yl)-N-(4-chlorophenethyl)-N-(1-phenylethyl)piperidin-4-amine] stands less than 100 nM.

In the case of `Nc1n[nH]c(N2CCC(N(CCc3ccc(Cl)cc3)Cc3ccncc3F)CC2)n1` [Example 119, 1-(3-amino-1H-1,2,4-triazol-5-yl)-N-(4-chlorophenethyl)-N-((3-fluoropyridin-4-yl)methyl)piperidin-4-amine], the IC50 is less than 100 nM. Take `Nc1n[nH]c(N2CCC(N(CCc3ccc(Cl)cc3)Cc3ccc(F)cc3)CC2)n1` [Example 123, 1-(3-amino-1H-1,2,4-triazol-5-yl)-N-(4-chlorophenethyl)-N-(4-fluorobenzyl)piperidin-4-amine]: the IC50 is less than 100 nM. With `Cc1ccccc1CN(CCc1ccc(Cl)cc1)C1CCN(c2nc(N)n[nH]2)CC1` [Example 125, 1-(3-amino-1H-1,2,4-triazol-5-yl)-N-(4-chlorophenethyl)-N-(2-methylbenzyl)piperidin-4-amine], the concentration for half-maximal inhibition (IC50) was less than 100 nM. Take `Nc1n[nH]c(N2CCC(N(CCc3ccc(Cl)cc3)Cc3ccc(Cl)c(C(F)(F)F)c3)CC2)n1` [Example 126, 1-(3-amino-1H-1,2,4-triazol-5-yl)-N-(4-chloro-3-(trifluoromethyl)benzyl)-N-(4-chlorophenethyl)piperidin-4-amine]: the concentration for half-maximal inhibition (IC50) is less than 100 nM. As to `Nc1n[nH]c(N2CCC(N(CCc3ccc(Cl)cc3)Cc3ccccc3Br)CC2)n1` [Example 127, 1-(3-amino-1H-1,2,4-triazol-5-yl)-N-(2-bromobenzyl)-N-(4-chlorophenethyl)piperidin-4-amine], the IC50 is less than 100 nM. Consider `Nc1n[nH]c(N2CCC(N(CCc3ccc(Br)cc3)Cc3cccc4ccccc34)CC2)n1` [Example 129, 1-(3-amino-1H-1,2,4-triazol-5-yl)-N-(4-bromophenethyl)-N-(naphthalen-1-ylmethyl)piperidin-4-amine], for which the IC50 is less than 100 nM. With `CN(C1CCN(c2nc(N)n[nH]2)CC1)C(CO)Cc1ccc(Cl)cc1` (centres unmarked) [Example 130, 2-((1-(3-amino-1H-1,2,4-triazol-5-yl)piperidin-4-yl)(methyl)amino)-3-(4-chlorophenyl)propan-1-ol dihydrochloride], the IC50 fell in the range of 100 to 1000 nM. In the case of `CN(CCc1cccnc1)C1CCN(c2nc(N)n[nH]2)CC1` [Example 131, 1-(3-amino-1H-1,2,4-triazol-5-yl)-N-methyl-N-(2-(pyridin-3-yl)ethyl)piperidin-4-amine dihydrochloride], the 50% inhibitory concentration (IC50) was in the range of 10000 to 100000 nM.

Take `Nc1nc(N2CCC(N(CCc3ccc(Cl)cc3)Cc3ccc(Cl)cc3)CC2)n[nH]1` [Example 134, 1-(3-amino-1H-1,2,4-triazol-5-yl)-N-(4-chlorobenzyl)-N-(4-chlorophenethyl)piperidin-4-amine]: the IC50 was less than 100 nM. For `Nc1n[nH]c(N2CCC(N(CCc3ccc(Cl)cc3)[C@H](CO)c3ccccc3)CC2)n1` [Example 135, (S)-2-((1-(3-amino-1H-1,2,4-triazol-5-yl)piperidin-4-yl)(4-chlorophenethyl)amino)-2-phenylethan-1-ol], the IC50 was less than 100 nM. Under `CN(Cc1nc2ccccc2[nH]1)C1CCN(c2nc(N)n[nH]2)CC1` [Example 136, N-((1H-benzo[d]imidazol-2-yl)methyl)-1-(3-amino-1H-1,2,4-triazol-5-yl)-N-methylpiperidin-4-aminetrihydrochloride] stands greater than 100000 nM; under `Nc1n[nH]c(N2CCC(N(CCc3ccc(Cl)cc3)Cc3ccccc3F)CC2)n1` [Example 137, 1-(3-amino-1H-1,2,4-triazol-5-yl)-N-(4-chlorophenethyl)-N-(2-fluorobenzyl)piperidin-4-amine dihydrochloride], less than 100 nM; under `C[C@H](Cc1ccc(Cl)cc1)N(C)C1CCN(c2nc(N)n[nH]2)CC1` [Example 139, (R)-1-(3-amino-1H-1,2,4-triazol-5-yl)-N-(1-(4-chlorophenyl)propan-2-yl)-N-methylpiperidin-4-amine dihydrochloride], 1000 to 10000 nM.

As for `CC(CN(C)C1CCN(c2nc(N)n[nH]2)CC1)c1ccc(Cl)cc1` (centres unmarked) [Example 140, 1-(3-amino-1H-1,2,4-triazol-5-yl)-N-(2-(4-chlorophenyl)propyl)-N-methylpiperidin-4-amine dihydrochloride], the IC50 was in the range of 10000 to 100000 nM.

For the molecule `CC(Cc1ccc(Cl)cc1)N(C)C1CCN(c2nc(N)n[nH]2)CC1` (centres unmarked) [Example 141, 1-(3-amino-1H-1,2,4-triazol-5-yl)-N-(1-(4-chlorophenyl)propan-2-yl)-N-methylpiperidin-4-amine dihydrochloride], the IC50 is 100 to 1000 nM. With `N#Cc1ccc(CN(CCc2ccc(Cl)cc2)C2CCN(c3nc(N)n[nH]3)CC2)cc1` [Example 142, 4-(((1-(3-amino-1H-1,2,4-triazol-5-yl)piperidin-4-yl)(4-chlorophenethyl)amino)methyl)benzonitrile], the IC50 was less than 100 nM.

Consider `Nc1n[nH]c(N2CCC(N(CCc3ccc(Cl)cc3)Cc3ccc(F)c4ccccc34)CC2)n1` [Example 144, 1-(3-amino-1H-1,2,4-triazol-5-yl)-N-(4-chlorophenethyl)-N-((4-fluoronaphthalen-1-yl)methyl)piperidin-4-amine], for which the IC50 is less than 100 nM. As to `Nc1nc(N2CCC(N(CCc3ccc(Cl)cc3)Cc3ccc(F)cc3Cl)CC2)n[nH]1` [Example 145, 1-(3-amino-1H-1,2,4-triazol-5-yl)-N-(2-chloro-4-fluorobenzyl)-N-(4-chlorophenethyl)piperidin-4-amine], the half-maximal inhibitory concentration (IC50) is less than 100 nM.

Consider `Nc1n[nH]c(N2CCC(N(CCc3ccc(Br)cc3)Cc3ccccc3)CC2)n1` [Example 146, 1-(3-amino-1H-1,2,4-triazol-5-yl)-N-benzyl-N-(4-bromophenethyl)piperidin-4-amine], for which the 50% inhibitory concentration (IC50) is less than 100 nM. Consider `CC(CNC1CCN(c2nc(N)n[nH]2)CC1)c1ccc(Cl)cc1` (centres unmarked) [Example 147, 1-(3-amino-1H-1,2,4-triazol-5-yl)-N-(2-(4-chlorophenyl)propyl)piperidin-4-aminedihydrochloride], for which the IC50 lay within 10000 to 100000 nM. For the molecule `CN(Cc1ccc(Cl)cc1)C1CCN(c2nc(N)n[nH]2)CC1` [Example 148, 1-(3-amino-1H-1,2,4-triazol-5-yl)-N-(4-chlorobenzyl)-N-methylpiperidin-4-amine dihydrochloride], the IC50 is greater than 100000 nM. As for `CN(CCc1ccc(Cl)cc1)C1CCN(c2nc(N)n[nH]2)CC1F` (centres unmarked) [Example 150, 1-(3-amino-1H-1,2,4-triazol-5-yl)-N-(4-chlorophenethyl)-3-fluoro-N-methylpiperidin-4-amine], the IC50 lay within 1000 to 10000 nM. In the case of `CC(Cc1ccc(Cl)cc1)NC1CCN(c2nc(N)n[nH]2)CC1` (centres unmarked) [Example 151, 1-(3-amino-1H-1,2,4-triazol-5-yl)-N-(1-(4-chlorophenyl)propan-2-yl)piperidin-4-amine dihydrochloride], the IC50 lay within 1000 to 10000 nM.

In the case of `COc1ccc(CN(CCc2ccc(Cl)cc2)C2CCN(c3nc(N)n[nH]3)CC2)cc1` [Example 152, 1-(3-amino-1H-1,2,4-triazol-5-yl)-N-(4-chlorophenethyl)-N-(4-methoxybenzyl)piperidin-4-amine], the IC50 was less than 100 nM. Then `CN(C1CCN(c2nc(N)n[nH]2)CC1)[C@H](CO)Cc1ccc(Cl)cc1` [Example 153, (S)-2-((1-(3-amino-1H-1,2,4-triazol-5-yl)piperidin-4-yl)(methyl)amino)-3-(4-chlorophenyl)propan-1-ol], with 100 to 1000 nM; and `CC1CN(c2nc(N)n[nH]2)CCC1N(C)CCc1ccc(Cl)cc1` (centres unmarked) [Example 154, 1-(3-amino-1H-1,2,4-triazol-5-yl)-N-(4-chlorophenethyl)-N,3-dimethylpiperidin-4-amine dihydrochloride], with 100 to 1000 nM; and `Nc1nc(N2CCC(N(CCc3ccc(Cl)cc3)Cc3cccc(C(F)(F)F)c3)CC2)n[nH]1` [Example 156, 1-(3-amino-1H-1,2,4-triazol-5-yl)-N-(4-chlorophenethyl)-N-(3-(trifluoromethyl)benzyl)piperidin-4-amine], with less than 100 nM. With `CN(CCc1ccccn1)C1CCN(c2nc(N)n[nH]2)CC1` [Example 157, 1-(3-amino-1H-1,2,4-triazol-5-yl)-N-methyl-N-(2-(pyridin-2-yl)ethyl)piperidin-4-amine trihydrochloride], the IC50 is 10000 to 100000 nM. With `CC(Cc1ccc(Cl)cc1)N(Cc1ccccc1)C1CCN(c2nc(N)n[nH]2)CC1` (centres unmarked) [Example 159, 1-(3-amino-1H-1,2,4-triazol-5-yl)-N-benzyl-N-(1-(4-chlorophenyl)propan-2-yl)piperidin-4-amine dihydrochloride], the IC50 is less than 100 nM. Then `CCC(Cc1ccc(Cl)cc1)N(C)C1CCN(c2nc(N)n[nH]2)CC1` (centres unmarked) [Example 160, 1-(3-amino-1H-1,2,4-triazol-5-yl)-N-(1-(4-chlorophenyl)butan-2-yl)-N-methylpiperidin-4-amine], with 1000 to 10000 nM; and `Cc1cccc(Cl)c1CN(CCc1ccc(Cl)cc1)C1CCN(c2nc(N)n[nH]2)CC1` [Example 161, 1-(3-amino-1H-1,2,4-triazol-5-yI)-N-(2-chloro-6-methylbenzyl)-N-(4-chlorophenethyl)piperidin-4-amine], with less than 100 nM; and `Nc1n[nH]c(N2CCC(N(CCc3ccc(Cl)cc3)CCc3ccc(Cl)cc3)CC2)n1` [Example 162, 1-(3-amino-1H-1,2,4-triazol-5-yl)-N,N-bis(4-chlorophenethyl)piperidin-4-amine], with less than 100 nM.

Consider `Nc1n[nH]c(N2CCC(N(CCc3ccc(Cl)cc3)Cc3ccc(Cl)cc3Cl)CC2)n1` [Example 163, 1-(3-amino-1H-1,2,4-triazol-5-yl)-N-(4-chlorophenethyl)-N-(2,4-dichlorobenzyl)piperidin-4-amine], for which the half-maximal inhibitory concentration (IC50) was less than 100 nM.
